Measurements reported in US10450260B2, “NO- and H2S-releasing compounds” (RESEARCH FOUNDATION OF THE CITY UNIVERSITY OF NEW YORK, priority 2011, dated 2019).

How the values were obtained:
HT-29 colon cancer cells = assay: Cell cycle analysis, PI staining and flow cytometry; type: cell-based, human
Description: Growth inhibition was measured using a colorimetric MTT assay kit (Roche, Indianapolis, Ind.). Proliferation (PCNA) was assessed using an ELISA kit from Calbiochem, (La Jolla, Calif.). Cell cycle phase distributions and apoptosis of control and treated cells were determined as previously described. All methods are described in Chattopadhyay et al., Biochemical Pharmacology, 2012, 83(6), 715-722.

[1] = tested on: MIA PaCa2 pancreatic cancer cell xenograft; assay: MIA PaCa2 xenograft in athymic nude mice; type: in vivo, mouse
Text: Male athymic nude (NU/NU) mice, age 5 weeks, were purchased from Charles River Laboratories, Inc., (Wilmington, Mass.) and were housed according to institutional and NIH guidelines.
Human colon (SW480), Breast (MCF-7, MDA-MB-231), and pancreas (MIA PaCa2) cancer cells (2×10^6) suspended in Matrigel (BD Biosciences, San Jose, Calif.) 50% v/v were inoculated subcutaneously in the right flanks of each mouse (10 mice per group) using a 1-mL syringe and 22-gauge needles. After 10 days the animals from each implanted cell line were randomly divided into 2 groups (N=5/group) and gavaged daily with either vehicle (1% methylcelloluse) or NOSH-naproxen (100 mg/kg) or NOSH (100 mg/kg), the ADT-OH-butyl nitrate compound that releases H2S and NO, in the case of colon cancer xenografts; or NOSH-aspirin (100 mg/kg body weight) in the breast and pancreatic cancers groups. The tumor size was measured every other day using electronic calipers, the tumor volumes were calculated using the following formula: length×width^2/2. The weights of the mice were also recorded every 3 days. Twenty-seven (27) to thirty (30) days post inoculation, the mice were sacrificed, the tumors collected, weighed, and photographed.

[2] = tested on: eleven different cancer cell lines; assay: MTT cell growth inhibition, all cell lines of the panel; type: cell-based; conditions: Homo sapiens; 24 hr; colon, breast, pancreas, lung, prostate, leukemia cancer cell lines of Table 1
Description: HT-29, SW-480 and HCT-15 human colon adenocarcinoma, MIA PaCa-2 and BxPC-3 human pancreatic cancer, LNCAP human prostate cancer, A549 human lung cancer, MCF-7 (estrogen receptor positive), MDA-MB 231 and SK-BR-3 (estrogen receptor negative) human breast cancer, and Jurkats human leukemia cell lines were obtained from American Type Tissue Collection (Manassas, Va.). All cells lines were grown as monolayers except for the Jurkats which were grown in suspension. […] Single cell suspensions were obtained by trypsinization (0.05% trypsin/EDTA), and cells were counted using a hemocytometer. Viability was determined by the trypan blue dye exclusion method.
Cell growth inhibitory effect of NOSH compounds were measured using a colorimetric MTT assay kit (Roche, Indianapolis, Ind.). […] The absorbance of the plates was measured on an ELISA reader at a wavelength of 570 nm. […]
HT-29, SW-480 and HCT-15 human colon adenocarcinoma, MIA PaCa-2 and BxPC-3 human pancreatic cancer, LNCAP human prostate cancer, A549 and H383 human lung cancer, MCF-7, MDA-MB 231 and SK-BR-3 human breast cancer and Jurkat T cell human leukemia cell lines were obtained from American Type Tissue Collection (Manassas, Va.) All cells lines were grown as monolayers except for the Jurkat T cells which were grown as suspension culture. […] Viability was determined by the trypan blue dye exclusion method. […]

With `O=C(CCCO[N+](=O)[O-])Oc1ccccc1C(=O)Oc1ccc(-c2cc(=S)ss2)cc1` [NOSH-1, 4-(3-thioxo-3H-1,2-dithiol-5-yl)phenyl 2-((4-(nitrooxy)butanoyl)oxy)benzoate] the “cell population in G2/M phase” value (HT-29 colon cancer cells; 1×IC50, 24 hours, control 26.9±2.2) was 15.4±2.6%, the “cell population in S phase” value (HT-29 colon cancer cells; 1×IC50, 24 hours, control 30.2±2.3%) was 22.6±1.3% and the “cell population in G0/G1 phase” value (HT-29 colon cancer cells; 1×IC50, 24 hours, control 42.9±2%) was 62.0±2.3%. The “cell population in G0/G1 phase” value (HT-29 colon cancer cells; 2×IC50, 24 hours) was 74.2±1.2%, the “cell population in G2/M phase” value (HT-29 colon cancer cells; 2×IC50, 24 hours) was 9.5±1.8% and the “cell population in S phase” value (HT-29 colon cancer cells; 2×IC50, 24 hours) was 16.3±1.2. For the same compound, the mean tumor volume ([1]; 100 mg/kg daily gavage, end of study, control 3265±476) was 285±117 mm^3, the “reduction of tumor mass” value ([1]; 100 mg/kg daily, day 30, vs control) was 75% and the average tumor mass ([1]; 100 mg/kg daily, day 30, control 2.45±2.7) was 0.61 ± 0.29 g. The “mean reduction of tumor volume” value ([1]; 100 mg/kg daily, vs control) was 91%.

With `CC(=O)Oc1ccccc1C(=O)O` [ASA, aspirin, reference compound] the IC50 [2] was greater than 5 mM.
